Experimental data from patent US20230135127A1, “COMPOSITIONS AND METHODS FOR DISEASE TREATMENT AND PREVENTION BY PH MODIFIERS AND/OR CELL PROLIFERATION INHIBITORS” (priority 2021, published 2023).
Counter-ions that a name gives are not always drawn. Like-named read-outs stand apart in the source and are kept apart here.

Experiments:
[1] = tested on: C57BL/6 mice fed high fat diet; assay: High fat diet obesity model; assay type: in vivo; conditions: for average reduction of intestinal length vs saline: entire intestines; for intestines vs saline (gross examination): from end of stomach to anus; for sizes of fat pads vs saline: gross; for loss of body weight: i.p. every other day, four doses, 3 days after final treatments, saline about 3%; for fold reduction of fat/bodyweight ratio vs saline / average fat/bodyweight ratio: i.p. four doses; for average fat/bodyweight ratio: saline 0.135
Description: The obesity model was similar to those previously described. (95, 96). Female C57BL/6 mice of 4 weeks age were acclimated at CRADL for 1 week. After the acclimation, mice were switched to Gamma-irradiated high fat diet (Research Diets, New Brunswick, N.J., USA) (60% calories from fat). After 4 weeks of high fat diet, the mice were switched back to regular diet, and treated with i.p. injection of saline or saline plus HCl or HOAc. The bodyweight of each mouse was recorded before each treatment, and at the end of the experiment.
In the obesity model of Example 10, after fed with high fat diet for 4 weeks, mice were weighed to record total body weight. The mice were switched to regular diet and randomly divided into groups to receive i.p. treatments with saline or saline plus HCl, HOAc or NaOH. The mice continued to receive i.p. treatments on every other day for 3 additional doses. Four days after the final treatments, mice were sacrificed, their total body weights were measured, fat pads, and internal organs were collected, weighed, and analyzed.
Obesity was induced in C57BL/6 mice by feeding young (5 weeks old) female mice with high fat diet for 4 weeks. The mice were then switched to normal diet and randomly divided into groups to receive i.p. treatments with saline or saline plus HCl, HOAc or NaOH every other day for a total of four doses. The mice were analyzed 3 days after the final treatments.

[2] = tested on: inflammatory infiltration in the lung tissues; assay: Asthma model: H&E staining of lung tissue; conditions: i.t. HOAc or HCl; i.p. NaOH
[3] = tested on: white bone marrow (WBM) cells; conditions: for Ki-67hi cells in bone marrow B lineage (CD19+) cells: i.p. x3, 1 day after third treatment, saline 5.59%; for Ki-67hi cells in non-B lineage cells of non-granulocyte WBM cells: i.p. x3, saline 11.5%
Description: For all examples, treatments of the mice were carried out either by i.t. (intra-tracheal) instillation or i.p. injection. For i.t. instillation, 60 μl of treatment solution of saline or saline plus 175 mM HCl or HOAc was instilled into the trachea of a mouse using a pipet tip. For i.p. injection, 200 μl of saline or saline plus 87.5 mM HCl, HOAc or NaOH was injected into the peritoneal cavity of a mouse using a 26 or 27G needle. At the time of the first treatment the body weights of the mice ranged about 19 to 30 g.
(§1) Cells were washed 3 times with PBS then stained with Zombie viability dyes at room temperature for 20 minutes. At the end of incubation, 10% volume of FBS was added to absorb excess Zombie dyes. After washes, the cells were stained with conjugated antibodies against surface antigens on ice. As specified in some experiments, the cells were subsequently stained with fluorochrome-conjugated Avidin. For Annexin V staining, cells were washed twice with plain PBS and once with Annexin V binging buffer (10 mM HEPES, pH7.4, 140 mM NaCl, 2.5 mM CaCl2)) after surface antigen staining, and incubated with fluorochrome-conjugated Annexin V in Annexin V binding buffer for 15 min at room temperature. The cells were washed twice in Annexin V binding buffer and resuspended in Annexin V binding buffer. 7-AAD was added to the cells before analyzed by flow cytometry. For Ki-67 and Foxp3 staining, lymphocytes (after Zombie dye and surface antigen staining) or tumor cells (without surface antigen staining) were fixed and permeabilized using Foxp3 staining buffer kit, then stained with PE-conjugated anti-mouse or human Ki-67 antibodies. (Biolegend, San Diego, Calif., USA). Stained and unstained cells were analyzed on Accuri C6 Flow Cytomer (Accuri Cytometers, Inc., Ann Arbor, Mich.), FACS Canto (BD Bioscience, San Jose, Calif., USA) and Attune™ cytometer (Invitrogen, Carlsbad, Calif.). Data analyses were carried out using FlowJo X.
Like lymph nodes, bone marrow is one of the most common sites for tumor metastasis. (106). In addition, primary tumors or tumor-like lesions can also occur in the bone. (107). […] In this example, C57BL/6 mice were treated with i.p. injection of saline, or saline plus HCl or HOAc every other day for 3 times. Bone marrow cells were extracted from both tibias 1 day after the third treatment for the study of B lineage cells, and for the studies of other cell types 3 days after the third i.p. treatment with saline or saline plus HOAc, and alternatively, mice received one i.t. injection of saline or saline plus HOAc, bone marrow was extracted from tibias the next day.

primary thymocytes = assay: In vitro treatment of thymocytes in FBS, Ki-67; assay type: cell-based, mouse; conditions: FBS with saline plus modifier, vs saline cultures
[4] = tested on: CD4 T cells in BALF and MLN; conditions: for Treg cells, % of total CD4 T cells, BALF: saline 7.46%; for Treg cells, % of total CD4 T cells, MLN: saline 11.80%
Description: (92, 93). […] For challenge, 2× concentrated solution was prepared by mixing 100 μg OVA protein and 1 μg […] peptide (Molecular Resources, Fort Collins, Colo., USA) in 30 μl saline per mouse, and kept on ice. Immediately before i.t. (intratracheal) injection the 30 μl 2×OVA solution was mixed with equal volume of 2× treatment solution (350 mM HOAc or HCl in saline) and instilled into the trachea of the mouse. The mice were challenged every other day for a total of 3 times.
The total mixture (60 μl) was instilled into the trachea of the mouse. The mice were treated every other day for a total of 3 times.
as §1

[5] = tested on: inflammatory cells in the BALF; assay: Asthma model: BALF cellularity and cell differentials; assay type: in vivo, Balb/c mice; conditions: i.t. HCl or HOAc, i.p. NaOH, every other day x3; day 3 after final challenge; saline 3.06×10^6

Row | Compound | average reduction of intestinal length vs saline [1] | intestines vs saline (gross examination) [1] | sizes of fat pads vs saline [1] | loss of body weight [1] | fold reduction of fat/bodyweight ratio vs saline [1] [fold] | average fat/bodyweight ratio [1] | inflammatory infiltration in the lungs (H&E) [2] | Ki-67hi cells in bone marrow B lineage (CD19+) cells [3] [%] | Ki-67hi cells in non-B lineage cells of non-granulocyte WBM cells [3] [%] | Ki-67+ cells in thymocytes after in vitro treatment (primary thymocytes) | Treg cells, % of total CD4 T cells, BALF ([4]; BALF) [%] | Treg cells, % of total CD4 T cells, MLN [4] [%] | total inflammatory cells in the BALF (average) [5] | Ki-67hi cells in bone marrow T (CD3+) cells ([3]; i.p. treated, saline 4.21%) [%] | Ki-67hi HSC ([3]; i.p. treated, saline 11.1%) | Ki-67hi cells in erythroid (TER-119+) lineage cells ([3]; i.p. treated, saline 72.3%) [%] | Ki-67hi cells in bone marrow T (CD3+) cells ([3]; i.t. treated, one injection, saline 4.88%) [%] | Ki-67hi HSC ([3]; i.t. treated, saline 5.56%) | Ki-67hi cells in erythroid (TER-119+) lineage cells ([3]; i.t. treated, saline 67.3%) [%] | CD44+ cells in Foxp3- CD4 T cells, BALF ([4]; BALF) [%]
1 | Cl [HCl, hydrochloric acid] | about 31% | drastically shortened | much smaller | about 25% | 5 | 0.027 | diminished | 2.83 | 6.34 | almost no Ki-67^+ cells | 4.45 | 9.12 | 1.07×10^6 per mouse |  |  |  |  |  |  | 
2 | CC(=O)O [HOAc, acetic acid] | ~12% | drastically shortened | much smaller | ~15% | 3 | 0.045 | diminished | 3.3 | 5.11 | almost no Ki-67^+ cells | 7.18 | 11.53 | 9.01×10^5 per mouse | 2.46 | no Ki-67^hi HSC were detected | 46.9 | 2.44 | no Ki-67^hi HSC were detected | 33.3 | 
3 | [Na+].[OH-] [NaOH, sodium hydroxide] | about 2% | only slightly shortened | somewhat reduced | about 17% |  | 0.106 | prominent in the perivascular areas, but not very noticeable in the peribronchial areas |  |  | higher percentages of Ki-67^+ cells | 6.97 | 11.46 | 2.18×10^6 per mouse |  |  |  |  |  |  | 80.6
